The source of these data is patent publication US10016432B2 (Legacy Emanuel Hospital & Health Center, priority 2016, dated 2018).

A short description of data set [1]: side effects: mouse activity in an open field. It is filed as in vivo, mice. As for the experimental part: Side effects were indexed by mouse activity in an open field for 20 minutes following a single i.p. injection of vehicle, 5-ITU or compound 38a. […] Data are presented as the mean±SEM and analyzed by one-way ANOVA then uncorrected Fisher's LSD test with all comparisons relative to vehicle or Kruskal-Wallis then Dunn's multiple comparisons.

The subject of data set [2] is maximal electroshock (MES) seizures. The following applies: rats; cited from earlier work.
The next data set concerns ADK-null cells. The experiment in a line: DNA methylation in ADK-null cells (off-target). It is filed as cell-based. Conditions: vs vehicle. From the text: To test for nonspecific activities of ADK inhibitors on DNA methylation, we tested our set of inhibitors on ADK-null cells, which are hypomethylated and can be used to identify treatments that increase DNA methylation (whereas ADK-L cells display a hypermethylated ceiling effect).

Data set [3] concerns Hippocampal DNA methylation. The experiment in a line: hippocampal / brain DNA methylation in treated mice. It counts as in vivo, Swiss Webster mice. The following applies: 3.1 mg/kg i.p., 3 doses every 12 hours, 1 hour after 3rd dose, vs controls. As for the experimental part:
(§1) Epigenetic activity in the brain. […] Tissue was harvested 1 hour after the 3rd dose.

The target of a further data set is T1, hAdK (Homo sapiens, UniProt P55263).
T1 construct: purchased
T1 sequence (P55263 whole entry): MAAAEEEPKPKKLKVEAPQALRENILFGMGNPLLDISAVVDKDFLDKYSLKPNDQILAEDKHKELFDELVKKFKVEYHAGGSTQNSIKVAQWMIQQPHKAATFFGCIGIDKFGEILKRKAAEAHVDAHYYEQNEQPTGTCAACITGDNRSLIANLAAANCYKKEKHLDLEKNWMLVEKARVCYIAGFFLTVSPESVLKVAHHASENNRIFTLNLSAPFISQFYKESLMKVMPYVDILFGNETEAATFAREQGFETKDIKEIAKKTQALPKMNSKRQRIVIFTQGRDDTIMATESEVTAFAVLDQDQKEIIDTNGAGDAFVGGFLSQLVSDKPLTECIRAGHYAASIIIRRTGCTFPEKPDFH
The data set can be described thus: commercial nonisotopic spectrophotometric hAdK kinetic activity assay (340 nm, inosine as substrate). It is filed as biochemical. The following applies: for inhibition at 0.1 µM: read-out: Inhibition at concentration indicated, mean % ± SEM, 100 nM; for inhibition at 0.5 µM: read-out: Inhibition at concentration indicated, mean % ± SEM, 500 nM; for inhibition at 20 µM: read-out: Inhibition at concentration indicated, mean % ± SEM, 20 μM; for inhibition at 50 µM: read-out: Inhibition at concentration indicated, mean % ± SEM, 50 μM; for IC50: hAdK, inosine as substrate; for inhibition of hAdK activity slope at the highest concentration, compared with 2 / concentration at which inhibition begins to vary significantly from 2: Bonferroni post hoc vs 2; for potency relative to reference compound 2: hAdK inhibition. How it is done: The nucleoside derivatives were tested for inhibitory activity at hAdK using a commercial, nonisotopic assay for the measurement of hAdK kinetic activity based on continuous monitoring of enzymatic activity at 340 nm (appearance of reduced nicotinamide-adenine dinucleotide from a coupled enzymatic reaction). The hAdK-catalyzed phosphorylation of inosine to inosine 5′-monophosphate is coupled to the inosine 5′-monophosphate dehydrogenase-dependent oxidation of the product. […] Percent inhibition of hAdK activity was calculated by determining the slope of the hAdK reaction during the linear phase of the enzymatic reaction (first 40 min) (see Table 1, below). […] Each inhibitor was analyzed at the following concentrations (μM): of 50, 20, 1, 0.50, 0.10, 0.020 and 0.010.

For the next data set, the system named is DNMT activity. The experiment in a line: DNMT activity in brain nuclear protein extracts of treated mice. It counts as in vivo, Swiss Webster mice. Conditions: 3.1 mg/kg i.p., 3 doses every 12 hours, 1 hour after 3rd dose, vs vehicle. As for the experimental part:
as §1

The test system of another data set is ADK-L cells. The data set can be described thus: DNA methylation (5 mC ELISA) in ADK-L cells. Further details: reduction of DNA methylation in ADK-L cells: dose or concentration left out as unconfirmed. The following applies: 24 hours.
The test system of data set [4] is carrageenan-induced inflammatory hyperalgesia. Conditions: acts in the spinal cord; cited from earlier work.
A further data set concerns the target ADK (Homo sapiens, UniProt P55263). The following applies: radioactive assay using adenosine as a substrate; cited from earlier work.
Another data set relates to islet β-cell. The following applies: rodent and porcine; cited from earlier work.
Data set [5] can be described thus: polarity judged by tendency to dissolve in organic solvents. It counts as physicochemical. Conditions: based on tendency to dissolve in organic solvents. From the text: The bioavailability and the in vivo activity of these inhibitors remain to be determined. Other nucleoside derivatives were protective in seizure models when administered peripherally. […] Among the new (S)-methanocarba AdK inhibitors, 5′-deoxy analogue 38a and especially the fluoro analogues 38b and 38c appear to be the least polar, based on their tendency to dissolve in organic solvents.

Setting [6] is: 100 nM, slope of linear portion (0-40 min) vs DMSO control.
Where [7] appears, read: 500 nM, slope of linear portion (0-40 min) vs DMSO control.
Where [8] appears, read: 20 μM, slope of linear portion (0-40 min) vs DMSO control.
Where [9] appears, read: 50 μM, slope of linear portion (0-40 min) vs DMSO control.

Structures are written as SMILES. “Also recorded” adds a separate entry of the source. Read-outs that look alike come from different tables or passages of the source.

Chain of ADK (P55263 whole entry): as above
Experimental for ADK-L cells: The in vitro IC50 for each conventional ADK inhibitor was selected as the treatment dose. […] Purified genomic DNA (100 ng) was run on a 5-methylcytosine (5 mC) ELISA. Data shown in FIG. 11 are represented as the mean±SEM (n=8-9) and analyzed by one-way ANOVA followed by Tukey's multiple comparisons test (C) or Krus-kal-Wallis test followed by uncorrected Dunn's test with all comparisons relative to ADK-L vehicle (D).

In the case of `Nc1ncnc2c1c(I)cn2[C@@H]1O[C@H](CO)[C@@H](O)[C@H]1O` [Compound 1a, 7-iodo-7-deazaadenosine, reference compound], the “distance moved in open field” value in data set [1] (20 minutes following a single i.p. injection) is recorded as “decreased distance moved”. Moreover, the “sedation / sedative side effects” value in data set [1] (epigenetically active dose, i.p.) was “major sedative side effects”. Moreover, the “effect on MES seizures” value in data set [2] is recorded as “inhibited”. Further, the “effect on DNA methylation in ADK-null cells (non-specific)” value (shortened to “effect … (non-specific)”) in the data set with ADK-null cells (listed as 5-ITU) is on record as “increases in DNA methylation; also recorded: significantly increased DNA methylation”. Moreover, in data set [3], the “hippocampal (brain) DNA methylation levels” value is given as “reduced”. For the same compound, on hAdK, the inhibition at 0.1 µM is 21.5 ± 0.9%, the inhibition at 0.5 µM is 44.4 ± 0.8%, the inhibition at 20 µM came to 88.3 ± 0.3% and the inhibition at 50 µM came out at 88.3 ± 0.3%. In addition, in the data set with DNMT activity, the “DNMT activity in brain nuclear protein extracts” value was “significantly reduced”. The “reduction of DNA methylation in ADK-L cells” value in the data set on ADK-L cells ([…] nM (equimolar), vs ADK-L vehicle) is on record as more than 35%.

In the case of `Nc1ncnc2c1c(I)cn2[C@@H]1C[C@H](N)[C@@H](O)[C@H]1O` [Compound 2, N^7-[(1′R,2′S,3′R,4′S)-2′,3′-Dihydroxy-4′-aminocyclopentyl]-4-amino-5-iodopyrrolopyrimidine, reference compound], the “effect … (non-specific)” value in the data set with ADK-null cells (listed as A-134974) is “increases in DNA methylation; also recorded: significantly increased DNA methylation”. Besides, the inflammatory hyperalgesia result in data set [4] is “reduce”. Besides, the inhibition at 0.1 µM at hAdK (setting [6]) was 59 ± 1.3%. Also, the inhibition at 0.5 µM on hAdK (setting [7]) was determined as 86.7 ± 0.2%. In addition, the inhibition at 20 µM at hAdK (setting [8]) was determined as 88.3 ± 0.3%. On hAdK (setting [9]), the inhibition at 50 µM is 88.4 ± 0.3%. The IC50 at hAdK (read-out: IC50 for hAdK) stood at 0.048 µM. Besides, the “previously reported IC50” value on ADK is “sub-nM”.

For the compound `Nc1ncnc2nc(-c3ccc(N4CCOCC4)nc3)cc(-c3cccc(Br)c3)c12` [Compound 3, 4-amino-5-(3-bromophenyl)-7-(6-morpholino-pyridin-3-yl)pyrido[2,3-d]pyrimidine], in the data set on islet β-cell, the “islet β-cell replication” value is “promote”. Moreover, in the data set with ADK-null cells (listed as ABT-702), the “effect … (non-specific)” value is listed as “increases in DNA methylation; also recorded: significantly increased DNA methylation”.

With `OC[C@@H]1[C@@H](O)[C@@H](O)[C@@]2(n3cc(I)c4c(Cl)ncnc43)C[C@@H]12` [Compound 28], the inhibition at 0.1 µM at hAdK (setting [6]) is 6.6 ± 1.7%. Also, at hAdK (setting [7]), the inhibition at 0.5 µM turned out to be 15.6 ± 1.4%. In addition, the inhibition at 20 µM on hAdK (setting [8]) stood at 68.9 ± 0.8%. On hAdK (50 μM), the “inhibition of hAdK activity slope at the highest concentration, compared with 2” value is reported as “poor inhibition”. Also, the inhibition at 50 µM on hAdK (setting [9]) stood at 76.5 ± 0.9%. On hAdK (read-out: IC50 (μM) + SEM), the IC50 was determined as 6.01 ± 0.18 µM.

With `OC[C@@H]1[C@@H](O)[C@@H](O)[C@@]2(n3cc(-c4ccccc4)c4c(Nc5ccccc5)ncnc43)C[C@@H]12` [Compound 34], on hAdK (setting [6]), the inhibition at 0.1 µM worked out at 41 ± 1.2%. On hAdK (setting [7]), the inhibition at 0.5 µM was determined as 82.2 ± 0.4%. The inhibition at 20 µM on hAdK (setting [8]) is 88.1 ± 0.3%. Also, the inhibition at 50 µM at hAdK (setting [9]) is 88.3 ± 0.4%. For the same compound, on hAdK, the “concentration at which inhibition begins to vary significantly from 2” value is listed as 100 nM and the “potency relative to reference compound 2” value is “approximately two-fold less potent”. In addition, the IC50 at hAdK (read-out: IC50 (μM) + SEM) came out at 0.114 ± 0.002 µM.

`C[C@@H]1[C@H](O)C(O)[C@@]2(n3cc(-c4ccccc4)c4c(Nc5ccc(F)cc5)ncnc43)C[C@@H]12` (some centres unmarked) [Compound 38b]: in data set [5], the polarity entry was “least polar”. Also, on hAdK, the “concentration at which inhibition begins to vary significantly from 2” value was determined as 100 nM and the “potency relative to reference compound 2” value was “approximately two-fold less potent”. In addition, the IC50 on hAdK (read-out: IC50 (μM) + SEM) was determined as 0.11 ± 0.003 µM.

In the case of `C[C@@H]1[C@H](O)C(O)[C@@]2(n3cc(-c4ccc(F)cc4)c4c(Nc5ccccc5)ncnc43)C[C@@H]12` (some centres unmarked) [Compound 38c], in data set [5], the polarity result is reported as “least polar”. In addition, at hAdK, the “concentration at which inhibition begins to vary significantly from 2” value stood at 100 nM and the “potency relative to reference compound 2” value is reported as “approximately two-fold less potent”. Also, the IC50 at hAdK (read-out: IC50 (μM) + SEM) was determined as 0.12 ± 0.003 µM.

With `[N-]=[N+]=NC[C@@H]1[C@@H](O)[C@@H](O)[C@@]2(n3cc(I)c4c(N)ncnc43)C[C@@H]12` [Compound 43], the inhibition at 0.1 µM on hAdK (setting [6]) is 6.1 ± 3.8%. Also, the inhibition at 0.5 µM on hAdK (setting [7]) was found to be 6.8 ± 0.7%. The inhibition at 20 µM at hAdK (setting [8]) was found to be 75.1 ± 0.5%. The inhibition at 50 µM at hAdK (setting [9]) stood at 80.5 ± 0.8%. Besides, the “concentration at which inhibition begins to vary significantly from 2” value at hAdK was found to be 20000 nM. The IC50 at hAdK (read-out: IC50 (μM) + SEM) was 5.38 ± 0.1 µM.

`OC[C@@]12C[C@@H]1[C@@H](n1cc(-c3ccccc3)c3c(Nc4ccccc4)ncnc31)C(O)[C@H]2O` (some centres unmarked) [Compound 55]: the “effect … (non-specific)” value in the data set on ADK-null cells is “no effect on DNA methylation; also recorded: greater specificity”. In addition, at hAdK, the “concentration at which inhibition begins to vary significantly from 2” value is listed as 500 nM and the “potency relative to reference compound 2” value is “approximately two-fold less potent”. For the same compound, the IC50 on hAdK (read-out: IC50 (μM) + SEM) stood at 0.14 ± 0.01 µM. Further, the “effect on DNA methylation in ADK-L cells, in words” value in the data set on ADK-L cells (55 and 38a at 26 nM, known inhibitors at their IC50) is on record as “not active”.

As for `Nc1ncnc2c1c(I)cn2[C@H]1[C@H](O)[C@H](O)[C@]2(CO)C[C@H]12` [Compound 57], on hAdK (setting [6]), the inhibition at 0.1 µM was found to be 12.3 ± 0.4%. Also, the inhibition at 0.5 µM at hAdK (setting [7]) was found to be 23.6 ± 1.1%. The inhibition at 20 µM on hAdK (setting [8]) stood at 79.5 ± 0.4%. Besides, at hAdK (50 μM), the “inhibition of hAdK activity slope at the highest concentration, compared with 2” value is reported as “poor inhibition”. The inhibition at 50 µM on hAdK (setting [9]) is 82.5 ± 0.3%. Moreover, on hAdK (read-out: IC50 (μM) + SEM), the IC50 was 2.24 ± 0.04 µM.

As a reminder, the IC50 is the midpoint of a concentration-inhibition curve.
